Measured values reported in patent US20260007651A1, “Effect of YEL002 on Conditions and Diseases” (RadMit, Inc., priority 2022, published 2026).

System: lymphoma
Assay: Lymphoma incidence in mice (National Institute of Health experiment)
Assay type: in vivo
Settings: reduced from 10-20%
Procedure: This was observed after treating mice right after birth, if humans are treated later in life it is possible that only 10 or 5 years are added and probably more for DNA repair deficient diseases like ataxia telangiectasia (ATM) which is still very substantial.

## COc1ccc2cc(-c3nc4ccc(C)cn4c3NCc3ccco3)c(=O)[nH]c2c1 [YEL002]
  spontaneous frequency of lymphoma: 0%
